Laboratory results taken from patent publication US20250145609A1, “3-SUBSTITUTED PYRIDAZINE COMPOUNDS AS SMARCA2 AND/OR SMARCA4 DEGRADERS” (Aurigene Oncology Limited, priority 2022, published 2025).
pEC50: −log10 of the molar value.

What was measured:
Type in all cases: cell-based
VCaP cells = experiment: Anti proliferative activity in VCaP cell line by CellTiter Glo assay; settings: Homo sapiens; for pEC50: VCaP, 192 h, 8 days incubation, CellTiter Glo luminescence
Method: Example-P1: Determination of Anti Proliferative Activity of Compounds in Cell Lines VCaP by Cell Titer Glo©(Promega) Assay
VCaP (ATCC CRL-2876) cells were seeded in 96 well plate flat black clear bottom plates (Corning, Cat. No 3904) using complete DMEM Medium. Next day, compounds listed in the present invention were added to cells from 10 mM stocks made in DMSO (Sigma Cat no. D2650). Each concentration of compound was tested in triplicate with DMSO concentration at a final percentage not exceeding 0.3 in the cells. After the incubation of VCaP cells with compound for 8 days assay was terminated using 50 μl of CellTiter Glo© reagent (Promega, Cat. no G7572). CellTiter-Glo® Luminescent reagent determines the number of viable cells based on quantitation of ATP present which is an indicator of cell number and metabolic activity. Luminescence readings were taken in Victor-3 instrument. Percent inhibition of proliferation was calculated using formula, % inhibition=100−(luminescence value of test/luminescence value of DMSO control)*100. DMSO control (0%)=Cells in complete media with DMSO; blank=Media alone containing DMSO. EC50 was calculated using graph pad prism software.
Herein the group “A” refers to EC50 values lower than l0 nM, group “B” refers to EC50 values between l0 nM-100 nM (both inclusive) and group “C” refers to EC50 values greater than 100 nM.

SMARCA2 = target: T1, SMARCA2 (Homo sapiens, UniProt P51531); experiment: SMARCA2 degradation in VCaP cells by Western blot; settings: at 100 nM, 16 hours
T1 construct: endogenous in cells; host or cells: VCaP (ATCC CRL-2876)
T1 sequence (P51531 whole entry): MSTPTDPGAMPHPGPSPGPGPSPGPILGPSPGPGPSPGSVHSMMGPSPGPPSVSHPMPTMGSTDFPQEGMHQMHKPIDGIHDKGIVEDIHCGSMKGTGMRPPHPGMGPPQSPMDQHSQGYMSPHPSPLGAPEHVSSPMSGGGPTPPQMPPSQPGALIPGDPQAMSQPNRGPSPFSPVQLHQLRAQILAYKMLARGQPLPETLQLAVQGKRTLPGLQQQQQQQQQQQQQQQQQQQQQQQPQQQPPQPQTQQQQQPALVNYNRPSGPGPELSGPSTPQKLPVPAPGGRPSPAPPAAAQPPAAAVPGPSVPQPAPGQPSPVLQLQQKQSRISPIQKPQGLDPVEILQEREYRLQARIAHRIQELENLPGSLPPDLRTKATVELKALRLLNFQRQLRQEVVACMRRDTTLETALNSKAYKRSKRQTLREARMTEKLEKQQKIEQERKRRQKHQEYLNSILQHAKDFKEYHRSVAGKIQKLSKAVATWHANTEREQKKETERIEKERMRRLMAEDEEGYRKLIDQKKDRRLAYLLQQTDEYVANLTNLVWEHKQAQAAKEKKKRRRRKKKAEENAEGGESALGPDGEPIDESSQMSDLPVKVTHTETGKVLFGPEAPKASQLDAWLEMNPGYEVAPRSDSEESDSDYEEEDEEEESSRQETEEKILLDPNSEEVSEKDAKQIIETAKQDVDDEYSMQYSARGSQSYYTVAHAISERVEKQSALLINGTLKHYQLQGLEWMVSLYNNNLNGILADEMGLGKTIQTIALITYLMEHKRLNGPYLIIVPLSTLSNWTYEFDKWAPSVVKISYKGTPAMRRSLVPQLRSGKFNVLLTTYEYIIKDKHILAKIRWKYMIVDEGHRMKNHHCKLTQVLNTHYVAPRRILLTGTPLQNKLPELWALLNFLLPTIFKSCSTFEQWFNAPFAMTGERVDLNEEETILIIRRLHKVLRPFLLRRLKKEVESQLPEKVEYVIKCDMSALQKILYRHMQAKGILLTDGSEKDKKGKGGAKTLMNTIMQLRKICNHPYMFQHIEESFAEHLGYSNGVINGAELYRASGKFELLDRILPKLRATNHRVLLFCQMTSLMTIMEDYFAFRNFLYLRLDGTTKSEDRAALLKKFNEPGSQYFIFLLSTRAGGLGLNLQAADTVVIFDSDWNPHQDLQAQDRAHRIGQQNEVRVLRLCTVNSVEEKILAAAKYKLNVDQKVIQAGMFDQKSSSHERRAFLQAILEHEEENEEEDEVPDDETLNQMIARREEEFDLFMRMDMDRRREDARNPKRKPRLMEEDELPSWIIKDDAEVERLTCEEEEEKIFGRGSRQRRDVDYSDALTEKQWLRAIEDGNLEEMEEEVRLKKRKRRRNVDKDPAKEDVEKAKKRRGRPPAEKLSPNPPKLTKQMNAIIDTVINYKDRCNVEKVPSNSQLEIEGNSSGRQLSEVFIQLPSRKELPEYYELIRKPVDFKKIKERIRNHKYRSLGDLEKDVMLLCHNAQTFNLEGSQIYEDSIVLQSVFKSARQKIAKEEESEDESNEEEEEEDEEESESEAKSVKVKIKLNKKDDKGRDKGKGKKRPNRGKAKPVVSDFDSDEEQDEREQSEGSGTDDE
Method: (§1) Example-P2: Determination of SMARCA2 and SMARCA4 Degradation in VCaP Cells by Western Blot
(§2) VCaP (ATCC CRL-2876) was plated in 6 well plates using complete Dulbecco's Modified Eagle's Medium. On the third day, compounds of present invention were added to cells from 10 mM stocks made in DMSO (Sigma Cat no. D2650). Each compound was tested at 100 nM concentration with DMSO not exceeding final percentage of 0.3 in the cells. Cells were incubated with the compound for 16 hours followed by harvesting with 1×RIPA lysis buffer (Thermo Fischer, catalogue number #89900) containing protease inhibitor cocktail (Sigma catalogue number #P-8340). Equal amount of protein was loaded on SDS PAGE gel for electrophoresis. Western blot was carried out for detection of either SMARCA2 (Cell signalling technologies, catalogue number #11966) or SMARCA4 antibody (Cell signalling technologies, catalogue number #52251). Beta-Tubulin antibody (Cell signalling technologies, catalogue number #86298) was used as loading control. Percentage of SMARCA2 or SMARCA4 degradation was calculated by using formula: […]

SMARCA4 = target: T2, SMARCA4 (Homo sapiens, UniProt P51532); experiment: SMARCA4 degradation in VCaP cells by Western blot; settings: at 100 nM; for Percent SMARCA4 degradation at 0.1 µM: VCaP, 16 h; for Percent degradation SMARCA4: 16 hours
T2 construct: endogenous in cells; host or cells: VCaP (ATCC CRL-2876)
T2 sequence (P51532 whole entry): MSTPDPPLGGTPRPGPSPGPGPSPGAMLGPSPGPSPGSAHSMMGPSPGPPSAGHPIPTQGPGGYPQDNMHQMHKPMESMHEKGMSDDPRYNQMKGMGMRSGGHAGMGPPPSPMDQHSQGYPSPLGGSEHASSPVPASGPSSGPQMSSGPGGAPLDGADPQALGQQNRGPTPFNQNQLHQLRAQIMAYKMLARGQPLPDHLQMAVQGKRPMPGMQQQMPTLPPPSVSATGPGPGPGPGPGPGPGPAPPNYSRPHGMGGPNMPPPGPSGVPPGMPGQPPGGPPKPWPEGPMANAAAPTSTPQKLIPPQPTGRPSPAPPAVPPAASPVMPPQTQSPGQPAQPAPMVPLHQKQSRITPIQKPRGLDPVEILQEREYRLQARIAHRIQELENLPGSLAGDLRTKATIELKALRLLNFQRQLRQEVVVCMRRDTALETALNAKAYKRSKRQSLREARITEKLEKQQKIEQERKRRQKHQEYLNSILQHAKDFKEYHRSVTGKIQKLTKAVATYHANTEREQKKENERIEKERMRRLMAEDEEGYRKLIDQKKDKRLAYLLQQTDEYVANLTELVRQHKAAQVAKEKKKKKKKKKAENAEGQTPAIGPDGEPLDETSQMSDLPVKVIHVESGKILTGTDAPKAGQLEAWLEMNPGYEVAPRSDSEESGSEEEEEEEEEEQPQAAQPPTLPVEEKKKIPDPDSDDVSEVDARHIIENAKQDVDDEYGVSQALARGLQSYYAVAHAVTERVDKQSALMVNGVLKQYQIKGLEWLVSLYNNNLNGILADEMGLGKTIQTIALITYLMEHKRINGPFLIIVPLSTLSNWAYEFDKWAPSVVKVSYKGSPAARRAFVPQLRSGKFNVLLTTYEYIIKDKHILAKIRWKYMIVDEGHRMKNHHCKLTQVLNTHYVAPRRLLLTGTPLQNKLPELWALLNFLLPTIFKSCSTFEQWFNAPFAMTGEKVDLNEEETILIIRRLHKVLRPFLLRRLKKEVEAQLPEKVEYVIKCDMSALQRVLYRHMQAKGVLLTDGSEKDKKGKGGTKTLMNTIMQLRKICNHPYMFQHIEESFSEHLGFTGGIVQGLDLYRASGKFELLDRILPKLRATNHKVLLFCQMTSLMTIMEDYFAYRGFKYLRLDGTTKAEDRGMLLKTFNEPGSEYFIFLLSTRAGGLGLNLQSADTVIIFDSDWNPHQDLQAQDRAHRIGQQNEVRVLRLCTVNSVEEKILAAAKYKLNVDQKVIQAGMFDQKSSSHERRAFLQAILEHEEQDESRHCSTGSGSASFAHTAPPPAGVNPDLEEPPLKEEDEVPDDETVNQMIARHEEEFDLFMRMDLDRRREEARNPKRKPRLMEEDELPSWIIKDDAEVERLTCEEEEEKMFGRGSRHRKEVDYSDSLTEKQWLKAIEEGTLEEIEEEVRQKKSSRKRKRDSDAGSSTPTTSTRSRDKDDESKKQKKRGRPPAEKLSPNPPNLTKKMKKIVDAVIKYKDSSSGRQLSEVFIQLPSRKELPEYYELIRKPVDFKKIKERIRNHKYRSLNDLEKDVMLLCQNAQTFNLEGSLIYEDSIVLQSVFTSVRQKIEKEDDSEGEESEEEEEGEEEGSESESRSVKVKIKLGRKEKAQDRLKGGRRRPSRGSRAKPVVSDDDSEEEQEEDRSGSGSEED
Method: as §1, §2

In the case of `Cc1ncsc1-c1ccc([C@H](C)NC(=O)[C@@H]2C[C@@H](O)CN2C(=O)[C@@H](NC(=O)C(C)N2CCC(c3ccc(-c4cc(-c5ccccc5O)nnc4N)cc3)CC2)C(C)(C)C)cc1` (mixture of isomers) [Compound 32, (2S,4R)-1-((2S)-2-(2-(4-(4-(3-amino-6-(2-hydroxyphenyl)pyridazin-4-yl)phenyl)piperidin-1-yl)propanamido)-3,3-dimethylbutanoyl)-4-hydroxy-N-((S)-1-(4-(4-methylthiazol-5-yl)phenyl)ethyl)pyrrolidine-2-carboxamide], the pEC50 (VCaP cells) was < 7.00, the “Percent degradation SMARCA2” value (SMARCA2) was 90% and the Percent SMARCA4 degradation at 0.1 µM (SMARCA4) was 0%.
With `Cc1ncsc1-c1ccc([C@H](C)NC(=O)[C@@H]2C[C@@H](O)CN2C(=O)[C@@H](NC(=O)CN2CCC(c3ccc(-c4cc(-c5ccccc5O)nnc4N)cc3)CC2C)C(C)(C)C)cc1` (mixture of isomers) [Compound 35, (2S,4R)-1-((2S)-2-(2-(4-(4-(3-amino-6-(2-hydroxyphenyl)pyridazin-4-yl)phenyl)-2-methylpiperidin-1-yl)acetamido)-3,3-dimethylbutanoyl)-4-hydroxy-N-((S)-1-(4-(4-methylthiazol-5-yl)phenyl)ethyl)pyrrolidine-2-carboxamide] the pEC50 (VCaP cells) was > 8.00, the “Percent degradation SMARCA2” value (SMARCA2) was 97% and the Percent SMARCA4 degradation at 0.1 µM (SMARCA4) was 88%.
`Cc1ncsc1-c1ccc([C@H](C)NC(=O)[C@@H]2C[C@@H](O)CN2C(=O)[C@@H](NC(=O)C2CCC(c3ccc(-c4cc(-c5ccccc5O)nnc4N)cc3)CC2)C(C)(C)C)cc1` (mixture of isomers) [Compound 40, (2S,4R)-1-((S)-2-(4-(4-(3-amino-6-(2-hydroxyphenyl)pyridazin-4-yl)phenyl)cyclohexane-1-carboxamido)-3,3-dimethylbutanoyl)-4-hydroxy-N-((S)-1-(4-(4-methylthiazol-5-yl)phenyl)ethyl)pyrrolidine-2-carboxamide] was tested, and the pEC50 (VCaP cells) was > 8.00, the “Percent degradation SMARCA2” value (SMARCA2) was 97% and the Percent SMARCA4 degradation at 0.1 µM (SMARCA4) was 45%.
For `Cc1ncsc1-c1ccc([C@H](C)NC(=O)[C@@H]2C[C@@H](O)CN2C(=O)[C@@H](NC(=O)CC2CCC(c3ccc(-c4cc(-c5ccccc5O)nnc4N)cc3)CC2)C(C)(C)C)cc1` (mixture of isomers) [Compound 43, (2S,4R)-1-((S)-2-(2-(4-(4-(3-amino-6-(2-hydroxyphenyl)pyridazin-4-yl)phenyl)cyclohexyl)acetamido)-3,3-dimethylbutanoyl)-4-hydroxy-N-((S)-1-(4-(4-methylthiazol-5-yl)phenyl)ethyl)pyrrolidine-2-carboxamide], the pEC50 (VCaP cells) was > 8.00, the “Percent degradation SMARCA2” value (SMARCA2) was 97% and the Percent SMARCA4 degradation at 0.1 µM (SMARCA4) was 86%.
With `Cc1ncsc1-c1ccc([C@H](C)NC(=O)[C@@H]2C[C@@H](O)CN2C(=O)[C@@H](NC(=O)C(C)N2CCC(c3ccc(-c4cc(-c5ccccc5O)nnc4N)cc3)CC2)C(C)(C)C)cc1` (single isomer, unassigned) [Compound 34] the pEC50 (VCaP cells) was < 7.00, the “Percent degradation SMARCA2” value (SMARCA2) was 91% and the “Percent degradation SMARCA4” value (SMARCA4) was 0%.
For `Cc1ncsc1-c1ccc([C@H](C)NC(=O)[C@@H]2C[C@@H](O)CN2C(=O)[C@@H](NC(=O)CN2CCC(c3ccc(-c4cc(-c5ccccc5O)nnc4N)cc3)CC2C)C(C)(C)C)cc1` (single isomer, unassigned) [Compound 36], the pEC50 (VCaP cells) was > 8.00, the “Percent degradation SMARCA2” value (SMARCA2) was 99% and the Percent SMARCA4 degradation at 0.1 µM (SMARCA4) was 86%.
For `Cc1ncsc1-c1ccc([C@H](C)NC(=O)[C@@H]2C[C@@H](O)CN2C(=O)[C@@H](NC(=O)C2CCC(c3ccc(-c4cc(-c5ccccc5O)nnc4N)cc3)CC2)C(C)(C)C)cc1` (single isomer, unassigned) [Compound 42], the pEC50 (VCaP cells) was > 8.00, the “Percent degradation SMARCA2” value (SMARCA2) was 99% and the “Percent degradation SMARCA4” value (SMARCA4) was 94%.
For `Cc1ncsc1-c1ccc([C@H](C)NC(=O)[C@@H]2C[C@@H](O)CN2C(=O)[C@@H](NC(=O)CC2CCC(c3ccc(-c4cc(-c5ccccc5O)nnc4N)cc3)CC2)C(C)(C)C)cc1` (single isomer, unassigned) [Compound 44], the pEC50 (VCaP cells) was > 8.00, the “Percent degradation SMARCA2” value (SMARCA2) was 98% and the Percent SMARCA4 degradation at 0.1 µM (SMARCA4) was 89%.
For `Cc1ncsc1-c1ccc([C@H](C)NC(=O)[C@@H]2C[C@@H](O)CN2C(=O)[C@@H](NC(=O)COc2ccc(-c3cc(-c4cc(F)ccc4O)nnc3N)cc2)C(C)(C)C)cc1` [Compound 1, (2S,4R)-1-((S)-2-(2-(4-(3-amino-6-(5-fluoro-2-hydroxyphenyl)pyridazin-4-yl)phenoxy)acetamido)-3,3-dimethylbutanoyl)-4-hydroxy-N—((S)-1-(4-(4-methylthiazol-5-yl)phenyl)ethyl)pyrrolidine-2-carboxamide], the pEC50 (VCaP cells) was 7.00 to 8.00.
For `Cc1ncsc1-c1ccc([C@H](C)NC(=O)[C@@H]2C[C@@H](O)CN2C(=O)[C@@H](c2cc(-c3ccc(-c4cc(-c5ccccc5O)nnc4N)cc3)no2)C(C)C)cc1` [Compound 6, (2S,4R)-1-((R)-2-(3-(4-(3-amino-6-(2-hydroxyphenyl)pyridazin-4-yl)phenyl)isoxazol-5-yl)-3-methylbutanoyl)-4-hydroxy-N—((S)-1-(4-(4-methylthiazol-5-yl)phenyl)ethyl)pyrrolidine-2-carboxamide], the pEC50 (VCaP cells) was 7.00 to 8.00, the “Percent degradation SMARCA2” value (SMARCA2) was 100% and the Percent SMARCA4 degradation at 0.1 µM (SMARCA4) was 85%.
In the case of `Cc1ncsc1-c1ccc([C@H](C)NC(=O)[C@@H]2C[C@@H](O)CN2C(=O)[C@@H](NC(=O)Cn2cc(-c3ccc(-c4cc(-c5ccccc5O)nnc4N)cc3)cn2)C(C)(C)C)cc1` [Compound 49, (2S,4R)-1-((S)-2-(2-(4-(4-(3-amino-6-(2-hydroxyphenyl)pyridazin-4-yl)phenyl)-1H-pyrazol-1-yl)acetamido)-3,3-dimethylbutanoyl)-4-hydroxy-N-((S)-1-(4-(4-methylthiazol-5-yl)phenyl)ethyl)pyrrolidine-2-carboxamide], the “Percent degradation SMARCA2” value (SMARCA2) was 66% and the Percent SMARCA4 degradation at 0.1 µM (SMARCA4) was 0%.
With `Cc1ncsc1-c1ccc([C@H](C)NC(=O)[C@@H]2C[C@@H](O)CN2C(=O)[C@@H](NC(=O)CN2CCC(Nc3ccc(-c4cc(-c5ccccc5O)nnc4N)cc3)CC2)C(C)(C)C)cc1` [Compound 54, (2S,4R)-1-((S)-2-(2-(4-((4-(3-amino-6-(2-hydroxyphenyl)pyridazin-4-yl)phenyl)amino)piperidin-1-yl)acetamido)-3,3-dimethylbutanoyl)-4-hydroxy-N—((S)-1-(4-(4-methylthiazol-5-yl)phenyl)ethyl)pyrrolidine-2-carboxamide] the “Percent degradation SMARCA2” value (SMARCA2) was 99% and the Percent SMARCA4 degradation at 0.1 µM (SMARCA4) was 97%.
With `Cc1ncsc1-c1ccc([C@H](C)NC(=O)[C@@H]2C[C@@H](O)CN2C(=O)[C@@H](NC(=O)CN2CCC(N(C)c3ccc(-c4cc(-c5ccccc5O)nnc4N)cc3)CC2)C(C)(C)C)cc1` [Compound 55, (2S,4R)-1-((S)-2-(2-(4-((4-(3-amino-6-(2-hydroxyphenyl)pyridazin-4-yl)phenyl)(methyl)amino)piperidin-1-yl)acetamido)-3,3-dimethylbutanoyl)-4-hydroxy-N—((S)-1-(4-(4-methylthiazol-5-yl)phenyl)ethyl)pyrrolidine-2-carboxamide] the “Percent degradation SMARCA2” value (SMARCA2) was 99% and the Percent SMARCA4 degradation at 0.1 µM (SMARCA4) was 71%.
For `Cc1ncsc1-c1ccc([C@H](C)NC(=O)[C@@H]2C[C@@H](O)CN2C(=O)C(c2cc(N3CCC(N4CCN(c5ccc(-c6cc(-c7ccccc7O)nnc6N)cc5)CC4)CC3)no2)C(C)C)cc1` (stereo partly drawn) [Compound 59, (2S,4R)-1-(2-(3-(4-(4-(4-(3-amino-6-(2-hydroxyphenyl)pyridazin-4-yl)phenyl)piperazin-1-yl)piperidin-1-yl)isoxazol-5-yl)-3-methylbutanoyl)-4-hydroxy-N—((S)-1-(4-(4-methylthiazol-5-yl)phenyl)ethyl)pyrrolidine-2-carboxamide], the pEC50 (VCaP cells) was > 8.00.
With `Cc1ncsc1-c1ccc([C@H](C)NC(=O)[C@@H]2C[C@@H](O)CN2C(=O)C(N2CCC(N3CCN(c4ccc(-c5cc(-c6ccccc6O)nnc5N)cc4)CC3)CC2)C(C)(C)C)cc1` (stereo partly drawn) [Compound 60, (2S,4R)-1-(2-(4-(4-(4-(3-amino-6-(2-hydroxyphenyl)pyridazin-4-yl)phenyl)piperazin-1-yl)piperidin-1-yl)-3,3-dimethylbutanoyl)-4-hydroxy-N—((S)-1-(4-(4-methylthiazol-5-yl)phenyl)ethyl)pyrrolidine-2-carboxamide] the pEC50 (VCaP cells) was < 7.00 and the inhibition at 1 µM (VCaP cells; at 1 μM, read-out: % inhibition of proliferation) was 20%.
